Assay results reported in patent US8563503B2, “Antibiotic, its nucleotide sequence, methods of construction and uses thereof” (Protein Design Lab. Ltd., priority 2011, dated 2013).
Positions count from the first letter of the chain named.

Key:
E. coli 02-1-65 = test: Protection test in vivo (intravenous injection) of infected mice; set-up: species or system Kungming mice; conditions: mice, infected with 3.8 × 10^5 cfu/ml i.p., drug once intravenous
Method: (§1) The drugs used in this embodiment were same with that used in embodiment 4.
(§2) The above drugs were dissolved and diluted by sterilized water, and the injection concentrations of each drug were 10 mg/kg, 5 mg/kg and 2.5 mg/kg.
(§3) After given intraperitoneal injection of fatal dose of above-mentioned bacteria, the mice of each drug experimental group respectively were given once intravenous injection of the drug by 10 mg, 5 mg, 2.5 mg/kg. The results were observed per 24 hours for 7-14 days. The positive result is mice's death.

Enterococcus ATCC 700802 = test: as above; set-up: species or system Kungming mice; conditions: mice, infected with 7.0 × 10^6 cfu/ml i.p., drug once intravenous
Method: as §1, §2, §3

[1] = tested on: Staphylococcus aureus MRSA BAA-42; test: as above; set-up: species or system Kungming mice; conditions: mice, infected with 6.5 × 10^5 cfu/ml i.p., drug once intravenous
Method: as §1, §2, §3

[2] = tested on: Staphylococcus aureus ATCC 29213; test: as above; set-up: species or system Kungming mice; conditions: mice, infected with 4.6 × 10^5 cfu/ml i.p., drug once intravenous
Method: as §1, §2, §3

[3] = tested on: Staphylococcus aureus MRSA BAA-42; test: MIC against the infecting strain (Table 2); format: cell-based; conditions: Staphylococcus aureus MRSA BAA-42
Method: (§4) (3) Culture Solution • MH Broth Culture Solution: 25 g was added into […] distilled water, heat to dissolve, subpackaged, autoclaved at 116° C. for 20 minutes, and MH Solid Culture Medium, 36 g was added into 1000 ml distilled water, autoclaved at 116° C. for 20 minutes, used for drug sensitive test of Gram-positive and negative aerobic bacteria. • Blood culture solution for Enterococcus faecalis, which was prepared by adding defibration rabbit blood into the MH culture solution by 5-10% and cultured at 37° C. in 5% CO2 for 24 hours. 2. Experimental Methods (1) The Measurement of Minimum Inhibitory Concentration (MIC) • The Minimum Inhibitory Concentration (MIC) of PMC-SA1 was measured by Agar Doubling Dilution Method. The bacterium was inoculated on the surface of agar plate containing different concentration of drugs by multipoint inoculate instrument (Deneley A400). The bacterial content per point was 10^5 CFU/ml. After incubated at 37° C. for 18-24 hours, the result can be observed. The least concentration of drugs in plate culture solution without bacterium growing was Minimum Inhibitory Concentration (MIC) of the drug to the said bacteria. 3. Results

[4] = tested on: Staphylococcus aureus ATCC 29213; test: MIC against the infecting strain (Table 2); format: cell-based; conditions: ATCC29213
Method: as §4

[5] = tested on: Multiple-drug resistance Pseudomonas aeruginosa (clinical separated strain 13280); test: In vivo protection of mice infected by multiple-drug resistance Pseudomonas aeruginosa; set-up: species or system Kungming mice; conditions: fatal dose i.p.
Text: (1) Drugs • PMC-PA, piperacillin, amikacin, ceftazidime, levofloxacin.
Multiple-drug resistance Pseudomonas aeruginosa (clinical separated strain 13280, isolated by laboratory bacteria room of West China Hospital)
Kungming mice (n=60), half male and half female, weighing 15-20 g were given intraperitoneal injection of multiple-drug resistance Pseudomonas aeruginosa, therein PMC-PA, piperacillin, amikacin, ceftazidime and levofloxacin experimental group were set respectively as 10 mice per group, while the control group was set as 10 mice per group. After given intraperitoneal injection of fatal dose of the bacterium, the mice in drug experimental groups respectively were given an intravenous injection of one kind of above drugs, the results were observed per 24 hours for continuous 10 days. The positive result was mouse's death.

[6] = tested on: methicillin-resistant Staphylococcus aureus ATCC BAA-42; test: Bacteria growth curve (A595 nm), comparison of the novel antibiotics; format: cell-based; conditions: drug 5 μg/ml, 37° C., A595 nm per hour
Method: The following experiment was set for comparing bacteriostasis effects of 6 kinds of the novel antibiotics. The experimental bacteriaum was United States Standard Strain methicillin-resistant Staphylococcus aureus ATCC BAA-42. 5 microliter of bacteria solution (10^6 CFU/ml level bacterium amount) was added into 10 ml culture solution containing 1% peptone, 1% NaCl, 0.5% yeast extract, 0.5% glucose and 0.1% K2HPO4, total of 8 groups were prepared. The first group as control was added 0.3 M NaCl+50 mM boric acid buffer fluid by the same volume as that of antibiosis polypeptide liquid added in any experimental groups, the second group was added penicillin G sodium by 5 μg/ml, PMC-SA1, PMC-SA2, PMC-SA3, PMC-SA4, PMC-SE and PMC-PA were added in the other experimental groups with preservative fluid being 0.3 M NaCl+50 mM boric acid buffer fluid by 5 ug/ml.
The solution of above groups was put into 100 ml conical flask, 200 rpm, grew at 37° C. 100 μl was sampled per hour, and added onto 96-pore ELISA plate and measured bacteria grown cloudiness by spectrophotometer (A595 nm) color comparison. The bacteria growth curve was drawn up to compare the bacteriostasis efficacy of antibiosis polypeptide.

`Cc1nnc(SCC2=C(C(=O)[O-])N3C(=O)[C@@H](NC(=O)Cn4cnnn4)[C@H]3SC2)s1.[Na+]` [Cefazolin, Cefazolin Sodium] showed an ED50 (E. coli 02-1-65) of over 30 mg/kg, an ED50 (Enterococcus ATCC 700802) of over 10 mg/kg and an ED50 [1] of 9.04 mg/kg. The ED50 [2] was 29.11 mg/kg, the MIC [3] was 6 µg/mL and the MIC [4] was 7 µg/mL.

With `NCC[C@H](O)C(=O)N[C@@H]1C[C@H](N)[C@@H](O[C@H]2O[C@H](CN)[C@@H](O)[C@H](O)[C@H]2O)[C@H](O)[C@H]1O[C@H]1O[C@H](CO)[C@@H](O)[C@H](N)[C@H]1O` [amikacin] the “time in which mice were all dead” value ([5]; 5 mg/kg intravenous) was at most 4 days.

With `CC(C)(O/N=C(\C(=O)N[C@@H]1C(=O)N2C(C(=O)[O-])=C(C[n+]3ccccc3)CS[C@H]12)c1csc(N)n1)C(=O)O` [ceftazidime] the “survival rate of mice in 10 days” value ([5]; 50 mg/kg intravenous) was 20%.

In the case of `C[C@H]1COc2c(N3CCN(C)CC3)c(F)cc3c(=O)c(C(=O)O)cn1c23` [levofloxacin], the “survival rate of mice in 10 days” value ([5]; 5 mg/kg intravenous) is reported as 40%.

For `CCN1CCN(C(=O)N[C@@H](C(=O)N[C@@H]2C(=O)N3[C@@H]2SC(C)(C)[C@@H]3C(=O)O)c2ccccc2)C(=O)C1=O` [piperacillin], the “time in which mice were all dead” value ([5]; 50 mg/kg intravenous) was at most 3 days.

B1: PMC-SA2: Staphylococcus aureus pheromone AgrD II linked to C-terminus of allosteric colicin Ia′; SEQ ID NO. 15; plasmid pBHC-SA2 (protein)
chain: SDPVRITNPAAESLGYDSDGREIMAVDIYLNPPRVDVFKGTPPAWSSFGNKTIWGGNEWVDDSPTRSDIEKRDKEITAYKNTLSAQQKENENKRTEAGKRLSAAIAAREKDENTLKTLRAGNADAADITRQEFRLLQAELREYGFRTEIAGYDALRLHTESRMLFADADSLRISPREARSLIEQAEKRQKDAQNADKKAADMLAEYERRKGILDTRLSELEKNGGAALAVLDAQQARLLGQQTRNDRAISEARNKLSSVTESLNTARNALTRAEQQLTQQKNTPDGKTIVSPEKFPGRSSTNHSIVVSGDPRFAGTIKITTSAVIDNRANLNYLLSHSGLDYKRNILNDRNPVVTEDVEGDKKIYNAEVAEWDKLRQRLLDARNKITSAESAVNSARNNLSARTNEQKHANDALNALLKEKENIRNQLSGINQKIAEEKRKQDELKATKDAINFTTEFLKSVSEKYGAKAEQLAREMAGQAKGKKIRNVEEALKTYEKYRADINKKINAKDRAAIAAALESVKLSDISSNLNRFSRGLGYAGKFTSLADWITEFGKAVRTENWRPLFVKTETIIAGNAATALVALVFSILTGSALGIIGYGLLMAVTGALIDESLVEKANKFWGIGVNACSSLF
modifications: The peptide of PMC-SA2
notes: Staphylococcus aureus pheromone AgrD II linked to C-terminus of allosteric colicin Ia′; 15; plasmid pBHC-SA2
With B1 the “bacteriostasis effect on growth of methicillin-resistant Staphylococcus aureus (bacteria growth curve)” value (from here on “bacteriostasis effect on growth”) [6] was “still less better”.

B2: PMC-SA4: Staphylococcus aureus pheromone AgrD IV linked to C-terminus of allosteric colicin Ia′; SEQ ID NO. 19; plasmid pBHC-SA4 (protein)
chain: SDPVRITNPAAESLGYDSDGREIMGVDIYLNPPRVDVFKGTPPAWSSFGNKTIWGGNEWVDDSPTRSDIEKRDKEITAYKNTLSAQQKENENKRTEAGKRLSAAIAAREKDENTLKTLRAGNADAADITRQEFRLLQAELREYGFRTEIAGYDALRLHTESRMLFADADSLRISPREARSLIEQAEKRQKDAQNADKKAADMLAEYERRKGILDTRLSELEKNGGAALAVLDAQQARLLGQQTRNDRAISEARNKLSSVTESLNTARNALTRAEQQLTQQKNTPDGKTIVSPEKFPGRSSTNHSIVVSGDPRFAGTIKITTSAVIDNRANLNYLLSHSGLDYKRNILNDRNPVVTEDVEGDKKIYNAEVAEWDKLRQRLLDARNKITSAESAVNSARNNLSARTNEQKHANDALNALLKEKENIRNQLSGINQKIAEEKRKQDELKATKDAINFTTEFLKSVSEKYGAKAEQLAREMAGQAKGKKIRNVEEALKTYEKYRADINKKINAKDRAAIAAALESVKLSDISSNLNRFSRGLGYAGKFTSLADWITEFGKAVRTENWRPLFVKTETIIAGNAATALVALVFSILTGSALGIIGYGLLMAVTGALIDESLVEKANKFWGIYSTCYFIM
modifications: The peptide of PMC-SA4
notes: Staphylococcus aureus pheromone AgrD IV linked to C-terminus of allosteric colicin Ia′; 19; plasmid pBHC-SA4
For B2, the “bacteriostasis effect on growth” value [6] was “less better”.

B3: PMC-SA3: Staphylococcus aureus pheromone AgrD III linked to C-terminus of allosteric colicin Ia′; SEQ ID NO. 17; plasmid pBHC-SA3 (protein)
chain: B2 chain with S627I, T628N, Y630D, I632L, M633L
modifications: The peptide of PMC-SA3
notes: Staphylococcus aureus pheromone AgrD III linked to C-terminus of allosteric colicin Ia′; 17; plasmid pBHC-SA3
With B3 the “bacteriostasis effect on growth” value [6] was “still less better”.
